From patent US6417212B1, “Modulators of peroxisome proliferator activated receptors” (Eli Lilly & Company, priority 1999, dated 2002)

Experiments:
db/db mice = assay: Evaluation of glucose levels in db/db mice; assay type: in vivo; conditions: Mus musculus, 168 h; 30 mg/kg daily oral gavage for 7 days; 100% = glucose not different from lean values; read-out: Glucose Normalisation
Procedure: After an acclimation period of 2 weeks, animals were individually identified by ear notches, weighed, and bled via the tail vein for determination of initial glucose levels. Blood was collected (100 μl) from unfasted animals by wrapping each mouse in a towel, cutting the tip of the tail with a scalpel, and milking blood from the tail into a heparinized capillary tube (Fisher) balanced on the edge of the bench. Sample was discharged into a heparinized microtainer with gel separator (VWR) and retained on ice. Plasma was obtained after centrifugation at 4° C. and glucose measured immediately. Remaining plasma was frozen until the completion of the experiment, when glucose and triglycerides were assayed in all samples. Animals were grouped based on initial glucose levels and body weights. Beginning the following morning, mice were dosed daily by oral gavage for 7 days using a 20 gauge, 1½″ curved disposable feeding needle. […] On day 7, mice were weighed and bled (tail vein) 3 hours after dosing. Twenty-four hours after the 7th dose (i.e., day 8), animals were bled again (tail vein). Samples obtained from conscious animals on days 0, 7 and 8 were assayed for glucose. After the 24 hour bleed, animals were weighed and dosed for the final time. Three hours after dosing on day 8, animals were anesthetized by inhalation of isoflurane and blood obtained via cardiac puncture (0.5-0.7 ml). Whole blood was transferred to serum separator tubes, chilled on ice and permitted to clot. Serum was obtained after centrifugation at 4° C. and frozen until analysis for compound levels. After sacrifice by cervical dislocation, the liver, heart and epididymal fat pads were excised and weighed.
The absorbance of the dye produced is linearly related to the analyte in the sample. The assays were further modified in our laboratory for use in a 96 well format. […] An additional aliquot of sample, pipetted to a third well and diluted in 200 μl water, provided a blank for each specimen. […] Sample absorbances were compared to a standard curve (100-800, 10-500, and 100-400 mg/dl for glucose, triglycerides and total cholesterol, respectively). […] All samples from an experiment were assayed at the same time to minimize inter-assay variability.

Hu apoAI transgenic mice = assay: Evaluation of triglyceride and cholesterol levels in Hu apoAI transgenic mice; assay type: in vivo; conditions: for change in vivo at 30 mg/kg / inhibition in vivo at 30 mg/kg: Mus musculus, 168 h, 30 mg/kg daily oral gavage for 7 days; for change in vivo at 30 mg/kg: pooled sera, read-out: % HDLc Increase (serum, FPLC area under the curve, over vehicle); for inhibition in vivo at 30 mg/kg: serum 3 hours after dosing on day 7, read-out: % Triglyceride Decrease (serum, over mice receiving vehicle)
Procedure: After an acclimation period of 2 weeks, animals were individually identified by ear notches, weighed, and assigned to groups based on body weight. Beginning the following morning, mice were dosed daily by oral gavage for 7 days using a 20 gauge, 11⁄2 curved disposable feeding needle (Popper & Sons). […] Prior to termination on day 7, mice were weighed and dosed. Three hours after dosing, animals were anesthetized by inhalation of isoflurane (2-4%; Abbott Laboratories, Chicago, Ill.) and blood obtained via cardiac puncture (0.7-1.0 ml). Whole blood was transferred to serum separator tubes (Vacutainer SST), chilled on ice, and permitted to clot. Serum was obtained after centrifugation at 4° C. and frozen until analysis for triglycerides, total cholesterol, compound levels, and serum lipoprotein profile by fast protein liquid chromatography (FPLC) coupled to an inline detection system. After sacrifice by cervical dislocation, the liver, heart and epididymal fat pads were excised and weighed. […] The percentage decrease in triglyceride serum levels in mice receiving a compound of the invention over mice receiving vehicle are reported in Table 2. […] The absorbance of the dye produced is linearly related to the analyte in the sample. The assays were further modified in our laboratory for use in a 96 well format. […] An additional aliquot of sample, pipetted to a third well and diluted in 200 μl water, provided a blank for each specimen. […] All samples from an experiment were assayed at the same time to minimize inter-assay variability. Serum lipoproteins were separated and cholesterol quantitated with an in-line detection system. […] The change in voltage corresponding to change in cholesterol concentration was plotted vs time and the area under the curve corresponding to the elution of VLDL, LDL and HDL was calculated using Perkin Elmer Turbochrome software.

huPPARα = assay: Cotransfection assay in CV-1 cells, huPPARα (GAL4 chimeric system); assay type: cell-based, human; conditions: luciferase reporter, relative to PPARα agonist reference molecule
Procedure: DNA-dependent binding (ABCD binding) was carried out using SPA technology with PPAR receptors. Tritium-labeled PPARγ and PPARα agonists were used as radioligands for generating displacement curves and IC50 values with compounds of the invention. Cotransfection assays were carried out in CV-1 cells. The reporter plasmid contained an acylCoA oxidase (AOX) PPRE and TK promoter upstream of the luciferase reporter cDNA. Appropriate PPARs and RXRα were constitutively expressed using plasmids containing the CMV promoter. For PPARα and PPARβ, interference by endogenous PPARγ in CV-1 cells was an issue. In order to eliminate such interference, a GAL4 chimeric system was used in which the DNA binding domain of the transfected PPAR was replaced by that of GAL4, and the GAL4 response element was utilized in place of the AOX PPRE. Cotransfection efficacy was determined relative to PPARα agonist and […] reference molecules. Efficacies were determined by computer fit to a concentration-response curve, or in some cases at a single high concentration of agonist (10 μM). For binding or cotransfection studies with receptors other than PPARs, similar assays were carried out using appropriate ligands, receptors, reporter constructs, etc., for that particular receptor.
These studies were carried out to evaluate the ability of compounds of the invention to bind to and/or activate various nuclear transcription factors, particularly huPPARα (“hu” indicates “human”) and huPPARγ. These studies provide in vitro data concerning efficacy and selectivity of compounds of the invention. Furthermore, binding and cotransfection data for compounds of the invention were compared with corresponding data for marketed compounds that act on either huPPARα or huPPARγ.

[1] = fenofibrate 100 mg/kg oral, 7 days, vs vehicle

| Compound | inhibition in vivo at 30 mg/kg (db/db mice) [%] | change in vivo at 30 mg/kg (Hu apoAI transgenic mice) [%] | inhibition in vivo at 30 mg/kg (Hu apoAI transgenic mice) [%] | also measured |
| --- | --- | --- | --- | --- |
| Cc1oc(-c2ccc(-c3ccccc3)cc2)nc1CCOc1ccc(OC(C)(C)C(=O)O)cc1 [Example 1, 2-{4-[2-(2-Biphenyl-4-yl-5-methyloxazol-4-yl)ethoxy]phenoxy}-2-methylpropionic acid] | 90 | 160 | 62.2 |  |
| Cc1oc(-c2cccc(-c3ccccc3)c2)nc1CCOc1ccc(OC(C)(C)C(=O)O)cc1 [Example 3, 2-{4-[2-(2-Biphenyl-3-yl-5-methyloxazol-4-yl)ethoxy]phenoxy}-2-methylpropionic acid] | 93 | 69 | 51.2 |  |
| Cc1oc(-c2ccc(-c3cccc4ccccc34)cc2)nc1CCOc1ccc(OC(C)(C)C(=O)O)cc1 [Example 8, 2-Methyl-2-(4-{2-[5-methyl-2-(4-naphthalen-1-ylphenyl)oxazol-4-yl]ethoxy}phenoxy)propionic acid] | 19 | 41 | 31.8 |  |
| Cc1oc(-c2ccc(-c3ccccc3C(F)(F)F)cc2)nc1CCOc1ccc(OC(C)(C)C(=O)O)cc1 [Example 12, 2-Methyl-2-(4-{2-[5-methyl-2-(2′-trifluoromethyl-biphenyl-4-yl)-oxazol-4-yl]-ethoxy}-phenoxy)propionic acid] | 44 | 29 | 37.6 |  |
| Cc1oc(-c2cccc(-c3ccccc3)c2)nc1CCOc1cccc(OC(C)(C)C(=O)O)c1 [Example 22, 2-{3-[2-(2-Biphenyl-3-yl-5-methyloxazol-4-yl)ethoxy]phenoxy}-2-methylpropionic acid] | 102 | 191 | 73.6 |  |
| Cc1cc(OCCc2nc(-c3ccc(-c4ccccc4)cc3)oc2C)ccc1OC(C)(C)C(=O)O [Example 24, 2-{4-[2-(2-Biphenyl-4-yl-5-methyloxazol-4-yl)-ethoxy]-2-methylphenoxy}-2-methylpropionic acid] | 55 | 72 | 62.3 |  |
| CCCCc1cc(OC(C)(C)C(=O)O)ccc1OCCc1nc(-c2ccc(-c3ccccc3)cc2)oc1C [Example 31, 2-{4-[2-(2-Biphenyl-4-yl-5-methyloxazol-4-yl)ethoxy]-3-butylphenoxy}-2-methylpropionic acid] | 89 | 217 | 66.7 |  |
| Cc1oc(-c2ccc(-c3ccccc3)cc2)nc1CCOc1ccc(OC(C)(C)C(=O)O)c(-c2ccccc2)c1 [Example 38, 2-{5-[2-(2-Biphenyl-4-yl-5-methyloxazol-4-yl)-ethoxy]-biphenyl-2-yloxy}-2-methyl-propionic acid] | 59 | 34 | 53.3 |  |
| Cc1oc(-c2ccc(-c3ccccc3)cc2)nc1CCOc1ccc(OC(C)(C)C(=O)O)c2ccccc12 [Example 48, 2-{4-[2-(2-Biphenyl-4-yl-5-methyloxazol-4-yl)ethoxy]naphthalen-1-yloxy}-2-methyl propionic acid] | 31 | 89 | 43.7 |  |
| Cc1oc(-c2cccc(-c3ccccc3)c2)nc1CCOc1ccc(OC(C)(C)C(=O)O)c2ccccc12 [Example 49, 2-{4-[2-(2-Biphenyl-3-yl-5-methyloxazol-4-yl)ethoxy]naphthalen-1-yloxy}-2-methyl propionic acid] | 39 | 34 | 48.7 |  |
| Cc1oc(-c2ccc(-c3ccccc3)cc2)nc1CCOc1ccc(OC(C)(C)C(=O)O)c2c1CCCC2 [Example 50, 2-{4-[2-(2-Biphenyl-4-yl-5-methyloxazol-4-yl)-ethoxy]-5,6,7,8-tetrahydronaphthalen-1-yloxy}-2-methyl propionic acid] | 42 | 95 | 53.9 |  |
| Cc1oc(-c2cccc(-c3ccccc3)c2)nc1CCOc1ccc(OC(C)(C)C(=O)O)c2c1CCCC2 [Example 51, 2-{4-[2-(2-Biphenyl-3-yl-5-methyloxazol-4-yl)-ethoxy]-5,6,7,8-tetrahydronaphthalen-1-yloxy}-2-methyl propionic acid] | 31 | 53 | 41.6 |  |
| CCCc1cc(OCCc2nc(-c3ccc(-c4ccccc4)cc3)oc2C)ccc1OC(C)(C)C(=O)O [Example 60, 2-{4-[2-(2-Biphenyl-4-yl-5-methyloxazol-4-yl)-ethyloxy]-2-propylphenoxy}-2-methyl-propionic acid] | 68 | 38 | 40.8 |  |
| CCCc1cc(OCCc2nc(-c3ccc(-c4ccccc4)cc3)oc2C)ccc1OCC(=O)O [Example 62, {4-[2-(2-Biphenyl-4-yl-5-methyl-oxazol-4-yl)-ethoxy]-2-propyl-phenoxy}-acetic acid] | 36 | 56 | 45.5 |  |
| Cc1c(C)c2c(c(C)c1O)CCC(C)(COc1ccc(CC3SC(=O)NC3=O)cc1)O2 (stereo not shown) [Troglitazone, reference compound] |  |  |  | huPPARα CTF Efficacy (huPPARα): 0% |
| CC(C)OC(=O)C(C)(C)Oc1ccc(C(=O)c2ccc(Cl)cc2)cc1 [fenofibrate, reference compound] |  |  |  | mean elevation of total serum cholesterol (Hu apoAI transgenic mice; [1]): 41%; mean percent increase of HDLc (Hu apoAI transgenic mice; [1]): 48%; mean reduction of triglycerides (Hu apoAI transgenic mice; [1]): 37%; HDLc peak area (FPLC) (Hu apoAI transgenic mice; fenofibrate 100 mg/kg oral, 7 days, vehicle 47-62 v-sec): 68-96 v-sec; average triglycerides values (Hu apoAI transgenic mice; fenofibrate 100 mg/kg oral, 7 days, vehicle 60-80 mg/dl): 33 to 58 mg/dL; average total serum cholesterol values (Hu apoAI transgenic mice; fenofibrate 100 mg/kg oral, 7 days, vehicle 148-180 mg/dl): 190 to 280 mg/dL |
